Tests used:
Chenopodium album [1] = experiment: Upland field foliage treatment (Test Example 1); format: in vivo; settings: foliage treatment 14th day after sowing, wettable powder, 1 kg active ingredient per hectare, evaluated 21st day after application
Source text: (§1) In the above evaluation criteria, the term “herbicidal effect” means evaluation to the objective weeds, and a higher index of the evaluation criteria means higher herbicidal effect on the objective weeds. On the other hand, a lower index of the evaluation criteria for the crops means higher safety to the crops. A plastic pot of 130 cm^2 was filled with upland soil. Then, seeds of weeds, namely, Setaria viridis, Digitaria adscendens, Chenopodium album and Stellaria media, and seeds of crops, namely, soybean (Glycine max) and wheat (Triticum aestivum), were sowed and covered with soil of about 1 cm thick. On the 14th day after the sowing, a wettable powder composition was prepared in accordance with Formulation Example 1, diluted with water in such an amount that the amount of the active ingredient became 1 kg per hectare, and then uniformly applied to the plant leaf surfaces. On the 21st day after the application, observation and evaluation were carried out according to the aforesaid criteria.

Digitaria adscendens [2] = experiment: Upland field foliage treatment (Test Example 1); format: in vivo; settings: foliage treatment 14th day after sowing, wettable powder, 1 kg active ingredient per hectare, evaluated 21st day after application
Source text: as §1

Setaria viridis [3] = experiment: Upland field foliage treatment (Test Example 1); format: in vivo; settings: foliage treatment 14th day after sowing, wettable powder, 1 kg active ingredient per hectare, evaluated 21st day after application
Source text: as §1

Stellaria media [4] = experiment: Upland field foliage treatment (Test Example 1); format: in vivo; settings: foliage treatment 14th day after sowing, wettable powder, 1 kg active ingredient per hectare, evaluated 21st day after application
Source text: as §1

soybean (Glycine max) [5] = experiment: Upland field foliage treatment (Test Example 1), crop; format: in vivo; settings: foliage treatment 14th day after sowing, 1 kg active ingredient per hectare, evaluated 21st day, lower index = higher safety
Source text: as §1

[6] = tested on: wheat (Triticum aestivum); experiment: as above; format: in vivo; settings: foliage treatment 14th day after sowing, 1 kg active ingredient per hectare, evaluated 21st day, lower index = higher safety
Source text: as §1

Chenopodium album [7] = experiment: Upland soil treatment (Test Example 2); format: in vivo; settings: soil surface treatment next day after sowing, wettable powder, 1 kg active ingredient per hectare, evaluated 21st day after application
Source text: (§2) In the above evaluation criteria, the term “herbicidal effect” means evaluation to the objective weeds, and a higher index of the evaluation criteria means higher herbicidal effect on the objective weeds. On the other hand, a lower index of the evaluation criteria for the crops means higher safety to the crops. A plastic pot of 130 cm^2 was filled with upland soil. Then, seeds of weeds, namely, Setaria viridis, Digitaria adscendens, Chenopodium album and Stellaria media, and seeds of crops, namely, soybean (Glycine max) and wheat (Triticum aestivum), were sowed and covered with soil of about 1 cm thick. On the next day after the sowing, a wettable powder composition was prepared in accordance with Formulation Example 1, diluted with water in such an amount that the amount of the active ingredient became 1 kg per hectare, and then uniformly applied to the soil surface. On the 21st day after the application, observation and evaluation were carried out according to the aforesaid criteria.

Digitaria adscendens [8] = experiment: Upland soil treatment (Test Example 2); format: in vivo; settings: soil surface treatment next day after sowing, wettable powder, 1 kg active ingredient per hectare, evaluated 21st day after application
Source text: as §2

Setaria viridis [9] = experiment: Upland soil treatment (Test Example 2); format: in vivo; settings: soil surface treatment next day after sowing, wettable powder, 1 kg active ingredient per hectare, evaluated 21st day after application
Source text: as §2

Stellaria media [10] = experiment: Upland soil treatment (Test Example 2); format: in vivo; settings: soil surface treatment next day after sowing, wettable powder, 1 kg active ingredient per hectare, evaluated 21st day after application
Source text: as §2

soybean (Glycine max) [11] = experiment: Upland soil treatment (Test Example 2), crop; format: in vivo; settings: soil surface treatment next day after sowing, 1 kg active ingredient per hectare, evaluated 21st day, lower index = higher safety
Source text: as §2

[12] = tested on: wheat (Triticum aestivum); experiment: Upland soil treatment (Test Example 2), crop; format: in vivo; settings: soil surface treatment next day after sowing, 1 kg active ingredient per hectare, evaluated 21st day, lower index = higher safety
Source text: as §2

Echinochloa spp. = experiment: Paddy field treatment (Test Example 3); format: in vivo, Echinochloa crusgalli; settings: paddy pot, submerged 4 cm, dropped on water surface 10th day after transplantation, 1 kg active ingredient per hectare, evaluated 21st day
Experimental: (§3) In the above evaluation criteria, the term “herbicidal effect” means evaluation to the objective weeds, and a higher index of the evaluation criteria means higher herbicidal effect on the objective weeds. On the other hand, a lower index of the evaluation criteria for the crops means higher safety to the crops. A plastic pot of 130 cm^2 was filled with paddy soil, and soil puddling was carried out to adjust the submerged depth to 4 cm. Then, seeds of Echinochloa crusgalli, Monochoria vaginalis, Ammannia multiflora and Scirpus juncoides were sowed, and rice (Oryza […], variety: Koshihikari) of two-leaf period was transplanted by 2 rice plants of 1 stub per pot at a depth of 3 cm. On the 10th day after the transplantation, a wettable powder composition was prepared in accordance with Formulation Example 1, diluted with water in such an amount that the amount of the active ingredient became 1 kg per hectare, and then dropped to diffuse on the water surface. On the 21st day after the dropping, observation and evaluation were carried out according to the aforesaid criteria.

Ammannia multiflora = experiment: Paddy field treatment (Test Example 3); format: in vivo; settings: paddy pot, submerged 4 cm, dropped on water surface 10th day after transplantation, 1 kg active ingredient per hectare, evaluated 21st day
Experimental: as §3

Monochoria vaginalis = experiment: Paddy field treatment (Test Example 3); format: in vivo; settings: paddy pot, submerged 4 cm, dropped on water surface 10th day after transplantation, 1 kg active ingredient per hectare, evaluated 21st day
Experimental: as §3

Scirpus juncoides = experiment: Paddy field treatment (Test Example 3); format: in vivo; settings: paddy pot, submerged 4 cm, dropped on water surface 10th day after transplantation, 1 kg active ingredient per hectare, evaluated 21st day
Experimental: as §3

[13] = tested on: rice (Oryza sative, variety: Koshihikari); experiment: Paddy field treatment (Test Example 3), crop; format: in vivo, Oryza sativa; settings: transplanted rice two-leaf period, water surface treatment 10th day after transplantation, 1 kg active ingredient per hectare, evaluated 21st day, lower index = higher safety
Experimental: as §3

Row | SMILES | Herbicidal activity Chenopodium album (Chenopodium album [1]) | Herbicidal activity Digitaria adscendens (Digitaria adscendens [2]) | Herbicidal activity Setaria viridis (Setaria viridis [3]) | Herbicidal activity Stellaria media (Stellaria media [4]) | Herbicidal activity Glycine max (soybean (Glycine max) [5]) | Herbicidal activity Triticum aestivum [6] | Herbicidal activity Chenopodium album (Chenopodium album [7]) | Herbicidal activity Digitaria adscendens (Digitaria adscendens [8]) | Herbicidal activity Setaria viridis (Setaria viridis [9]) | Herbicidal activity Stellaria media (Stellaria media [10]) | Herbicidal activity Glycine max (soybean (Glycine max) [11]) | Herbicidal activity Triticum aestivum [12] | Herbicidal activity Echinochloa spp. (Echinochloa spp.) | Herbicidal activity Ammannia multiflora (Ammannia multiflora) | Herbicidal activity Monochoria vaginalis (Monochoria vaginalis) | Herbicidal activity Scirpus juncoides (Scirpus juncoides) | Herbicidal activity Oryza sativa [13]
1 | COC=C(Cn1nc(-c2cccc(C)c2)cc1C)C(=O)OC [Compound 3] | 5 (herbicidal effect of not less than 90% by weight) | 4 (herbicidal effect of not less than 70% by weight and less than 90% by weight) | 5 (herbicidal effect of not less than 90% by weight) | 5 (herbicidal effect of not less than 90% by weight) | 0 (herbicidal effect of not less than 0% by weight and less than 10% by weight) | 0 (herbicidal effect of not less than 0% by weight and less than 10% by weight) | 4 (herbicidal effect of not less than 70% by weight and less than 90% by weight) | 4 (herbicidal effect of not less than 70% by weight and less than 90% by weight) | 4 (herbicidal effect of not less than 70% by weight and less than 90% by weight) | 4 (herbicidal effect of not less than 70% by weight and less than 90% by weight) | 0 (herbicidal effect of not less than 0% by weight and less than 10% by weight) | 0 (herbicidal effect of not less than 0% by weight and less than 10% by weight) | 3 (herbicidal effect of not less than 50% by weight and less than 70% by weight) | 4 (herbicidal effect of not less than 70% by weight and less than 90% by weight) | 4 (herbicidal effect of not less than 70% by weight and less than 90% by weight) | 3 (herbicidal effect of not less than 50% by weight and less than 70% by weight) | 0 (herbicidal effect of not less than 0% by weight and less than 10% by weight)
2 | COC=C(Cn1nc(-c2c(Cl)cccc2Cl)cc1C)C(=O)OC [Compound 9] | 4 (herbicidal effect of not less than 70% by weight and less than 90% by weight) | 4 (herbicidal effect of not less than 70% by weight and less than 90% by weight) | 4 (herbicidal effect of not less than 70% by weight and less than 90% by weight) | 4 (herbicidal effect of not less than 70% by weight and less than 90% by weight) | 0 (herbicidal effect of not less than 0% by weight and less than 10% by weight) | 0 (herbicidal effect of not less than 0% by weight and less than 10% by weight) | 5 (herbicidal effect of not less than 90% by weight) | 4 (herbicidal effect of not less than 70% by weight and less than 90% by weight) | 4 (herbicidal effect of not less than 70% by weight and less than 90% by weight) | 4 (herbicidal effect of not less than 70% by weight and less than 90% by weight) | 0 (herbicidal effect of not less than 0% by weight and less than 10% by weight) | 0 (herbicidal effect of not less than 0% by weight and less than 10% by weight) | 3 (herbicidal effect of not less than 50% by weight and less than 70% by weight) | 3 (herbicidal effect of not less than 50% by weight and less than 70% by weight) | 3 (herbicidal effect of not less than 50% by weight and less than 70% by weight) | 3 (herbicidal effect of not less than 50% by weight and less than 70% by weight) | 0 (herbicidal effect of not less than 0% by weight and less than 10% by weight)
3 | COC=C(Cn1nc(-c2cccc(Cl)c2Cl)cc1C)C(=O)OC [Compound 6] | 4 (herbicidal effect of not less than 70% by weight and less than 90% by weight) | 4 (herbicidal effect of not less than 70% by weight and less than 90% by weight) | 4 (herbicidal effect of not less than 70% by weight and less than 90% by weight) | 4 (herbicidal effect of not less than 70% by weight and less than 90% by weight) | 0 (herbicidal effect of not less than 0% by weight and less than 10% by weight) | 0 (herbicidal effect of not less than 0% by weight and less than 10% by weight) | 4 (herbicidal effect of not less than 70% by weight and less than 90% by weight) | 4 (herbicidal effect of not less than 70% by weight and less than 90% by weight) | 4 (herbicidal effect of not less than 70% by weight and less than 90% by weight) | 4 (herbicidal effect of not less than 70% by weight and less than 90% by weight) | 0 (herbicidal effect of not less than 0% by weight and less than 10% by weight) | 0 (herbicidal effect of not less than 0% by weight and less than 10% by weight) | 4 (herbicidal effect of not less than 70% by weight and less than 90% by weight) | 3 (herbicidal effect of not less than 50% by weight and less than 70% by weight) | 3 (herbicidal effect of not less than 50% by weight and less than 70% by weight) | 3 (herbicidal effect of not less than 50% by weight and less than 70% by weight) | 0 (herbicidal effect of not less than 0% by weight and less than 10% by weight)
4 | COC=C(Cn1nc(-c2cc(C)ccc2C)cc1C)C(=O)OC [Compound 5] | 5 (herbicidal effect of not less than 90% by weight) | 4 (herbicidal effect of not less than 70% by weight and less than 90% by weight) | 4 (herbicidal effect of not less than 70% by weight and less than 90% by weight) | 4 (herbicidal effect of not less than 70% by weight and less than 90% by weight) | 0 (herbicidal effect of not less than 0% by weight and less than 10% by weight) | 0 (herbicidal effect of not less than 0% by weight and less than 10% by weight) | 4 (herbicidal effect of not less than 70% by weight and less than 90% by weight) | 5 (herbicidal effect of not less than 90% by weight) | 4 (herbicidal effect of not less than 70% by weight and less than 90% by weight) | 4 (herbicidal effect of not less than 70% by weight and less than 90% by weight) | 0 (herbicidal effect of not less than 0% by weight and less than 10% by weight) | 0 (herbicidal effect of not less than 0% by weight and less than 10% by weight) |  | 3 (herbicidal effect of not less than 50% by weight and less than 70% by weight) | 5 (herbicidal effect of not less than 90% by weight) | 3 (herbicidal effect of not less than 50% by weight and less than 70% by weight) | 0 (herbicidal effect of not less than 0% by weight and less than 10% by weight)
